Test results published in publication PMC6592956, “Characterization of Porcine Hepatic and Intestinal Drug Metabolizing CYP450: Comparison with Human Orthologues from A Quantitative, Activity and Selectivity Perspective” (Scientific Reports, 2019).
Marks after values point to notes of the source that are not given here. Blank lines part the entries; values can stand above or below the molecule they belong to.

Experiments:
[1] = target: CYP2C9/19; details: cited from earlier work
Protocol: (§1) The inhibitors used were α-NFV, 8-MPS, KET, SFZ, QND, and DDC for CYP1A/2 A, CYP2A, CYP3A, CYP2C, CYP2D, and CYP2E1, respectively. […] All incubations were performed in triplicate.

[2] = test system: T1, CYP2C; test: Group mean of log10 Km (Km in µM) for porcine hepatic microsomes from 8 male pigs, probe metabolism at 37 °C, LC-MS/MS.; assay type: biochemical, pig liver microsomes; details: n = 8
T1 construct: native enzymes in hepatic or duodenal microsomes

[3] = test system: porcine intestinal CYP450 enzymes; details: intestinal versus hepatic microsomes
[4] = test system: porcine intestinal CYP450 enzymes; test: in vitro; details: pig, duodenal microsomes
[5] = test system: porcine CYP450; details: outcome of general decision tree, Figure 4
[6] = test system: T1, CYP2C; test: Group mean of log10 Km (Km in µM) for porcine hepatic microsomes from 8 female pigs, probe metabolism at 37 °C, LC-MS/MS.; assay type: biochemical, pig liver microsomes; details: n = 8
[7] = test system: hepatic CYP450 abundancies; test: Pearson correlation between hepatic CYP450 abundancies and probe activities
[8] = test system: CYP2C; details: TB 200 µM; inhibitors SFZ 0.5, α-NFV 0.1 (1 µM), QND 0.1, KET 0.3, DDC 20, 8-MPS 1 µM; mean (SD) of 3
[9] = test system: CYP1A; test: Incubation with inhibitors: PH-O-deethylation in porcine hepatic microsomes; assay type: in vitro ADME, conventional pig
Protocol: as §1

[10] = target: T2, CYP2D (Sus scrofa, UniProt O46658); test: Incubation with inhibitors: DXM-O-demethylation in porcine hepatic microsomes; assay type: in vitro ADME, conventional pig; details: DXM 10 µM; inhibitors SFZ 0.5, α-NFV 0.1 (1 µM), QND 0.1, KET 0.3, DDC 20, 8-MPS 1 µM; mean (SD) of 3
T2 construct: from tissue; host or cells: pig liver microsomes
T2 sequence (O46658 1-500): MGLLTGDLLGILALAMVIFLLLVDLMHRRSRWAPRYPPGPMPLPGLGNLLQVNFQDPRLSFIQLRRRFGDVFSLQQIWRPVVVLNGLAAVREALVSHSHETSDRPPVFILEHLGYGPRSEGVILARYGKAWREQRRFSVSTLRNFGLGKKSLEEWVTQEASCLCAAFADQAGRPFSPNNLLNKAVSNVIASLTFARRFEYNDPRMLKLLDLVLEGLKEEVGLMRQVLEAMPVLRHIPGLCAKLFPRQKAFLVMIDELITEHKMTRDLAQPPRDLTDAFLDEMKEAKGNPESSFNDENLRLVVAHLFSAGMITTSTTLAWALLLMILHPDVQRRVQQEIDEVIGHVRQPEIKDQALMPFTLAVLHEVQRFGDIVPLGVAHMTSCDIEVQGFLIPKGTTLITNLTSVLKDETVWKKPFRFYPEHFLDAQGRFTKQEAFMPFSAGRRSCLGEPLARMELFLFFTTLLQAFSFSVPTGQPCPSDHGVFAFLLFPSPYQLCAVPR
Protocol: as §1

[11] = test system: CYP3A; test: Incubation with inhibitors: MDZ-hydroxylation in porcine hepatic microsomes; assay type: in vitro ADME, conventional pig; details: MDZ 20 µM; inhibitors SFZ 0.5, α-NFV 0.1 (1 µM), QND 0.1, KET 0.3, DDC 20, 8-MPS 1 µM; mean (SD) of 3
Protocol: as §1

[12] = test system: CYP2E; test: Incubation with inhibitors: CZ-hydroxylation in porcine hepatic microsomes; assay type: in vitro ADME, conventional pig
Protocol: as §1

[13] = test system: CYP2A; test: Incubation with inhibitors: CM-hydroxylation in porcine hepatic microsomes; assay type: in vitro ADME, conventional pig
Protocol: as §1

[14] = test system: hepatic CYP450

Molecule: Nc1ccc(S(=O)(=O)Nc2ccnn2-c2ccccc2)cc1 [SFZ, sulphaphenazole]
- Ki [1]: 120 to 700 nM

- log_Km, male [2]: 3,0641
- Vmax in intestinal microsomes as % of the hepatic Vmax [3]: 2%
- Km at 10 min [4]: 1.41 mM
- Enzyme involvement: Low affinity [5]: CYP2C, CYP3A
- log_Km, female [6]: 3,3239
- Pearson's correlation coefficient, TB activity vs hepatic CYP2C33 abundance ([7]; level 1 (TB 5.00 µM)): 0.53
- Pearson's correlation coefficient, TB activity vs hepatic CYP2C49 abundance ([7]; level 1 (TB 5.00 µM)): 0.64*
- Pearson's correlation coefficient, TB activity vs hepatic CYP2C33 abundance ([7]; level 2 (TB 10.0 µM)): 0.55
- Pearson's correlation coefficient, TB activity vs hepatic CYP2C49 abundance ([7]; level 2 (TB 10.0 µM)): 0.65*
- Pearson's correlation coefficient, TB activity vs hepatic CYP2C33 abundance ([7]; level 3 (TB 50.0 µM)): 0.62*
- Pearson's correlation coefficient, TB activity vs hepatic CYP2C49 abundance ([7]; level 3 (TB 50.0 µM)): 0.68*
- Pearson's correlation coefficient, TB activity vs hepatic CYP2C33 abundance ([7]; level 4 (TB 100 µM)): 0.62*
- Pearson's correlation coefficient, TB activity vs hepatic CYP2C49 abundance ([7]; level 4 (TB 100 µM)): 0.71*
- Pearson's correlation coefficient, TB activity vs hepatic CYP2C33 abundance ([7]; level 5 (TB 200 µM)): 0.62*
- Pearson's correlation coefficient, TB activity vs hepatic CYP2C49 abundance ([7]; level 5 (TB 200 µM)): 0.69*
- Pearson's correlation coefficient, TB activity vs hepatic CYP2C33 abundance ([7]; level 6 (TB 400 µM)): 0.61
- Pearson's correlation coefficient, TB activity vs hepatic CYP2C49 abundance ([7]; level 6 (TB 400 µM)): 0.72*
Molecule: CCCCNC(=O)NS(=O)(=O)c1ccc(C)cc1 [TB, tolbutamide]

- Ratio of residual activity (substrate + inhibitor versus substrate only), CYP2C TB [8]: 1.13 (0.099)
- Ratio of residual activity (substrate + inhibitor versus substrate only), CYP1A PH ([9]; PH 20 µM, inhibitors SFZ 0.5, α-NFV 0.1 (1 µM), QND 0.1, KET 0.3, DDC 20, 8-MPS 1 µM, mean (SD) of 3): 0.76 (0.011)
- PH-O-deethylation (CYP1A2) activity, % of the control value ([9]; inhibitor increased to 1 µM): 76%
- inhibition at 0.1 µM ([9]; pig, probe phenacetin 20 µM (PH-O-deethylation), porcine hepatic microsomes, read-out: Inhibition of PH-O-deethylation by inhibitor): 24%
- Ratio of residual activity (substrate + inhibitor versus substrate only), CYP2D DXM [10]: 1.02 (0.143)
- Ratio of residual activity (substrate + inhibitor versus substrate only), CYP3A MDZ [11]: 1.08 (0.048)
- Ratio of residual activity (substrate + inhibitor versus substrate only), CYP2E CZ ([12]; CZ 50 µM, inhibitors SFZ 0.5, α-NFV 0.1 (1 µM), QND 0.1, KET 0.3, DDC 20, 8-MPS 1 µM, mean (SD) of 3): 1.06 (0.057)
- Inhibition of CZ-hydroxylation by inhibitor ([12]; porcine hepatic microsomes): did not inhibit
- Ratio of residual activity (substrate + inhibitor versus substrate only), CYP2A CM ([13]; CM 1 µM, inhibitors SFZ 0.5, α-NFV 0.1 (1 µM), QND 0.1, KET 0.3, DDC 20, 8-MPS 1 µM, mean (SD) of 3): 0.94 (0.131)
- inhibition at 1 µM ([13]; pig, porcine hepatic microsomes, probe coumarin 1 µM (CM-hydroxylation), inhibitor 1 µM, read-out: Maximal inhibition of other reactions (CM)): 4%
- Inhibition of CM-hydroxylation by inhibitor ([13]; porcine hepatic microsomes): 5%
Molecule: O=c1cc(-c2ccccc2)oc2c1ccc1ccccc12 [α-naphthoflavone]

B1: CYP3A29 (protein, UniProt P79401 1-503, looked up)
Cytochrome P450 3A29: MDLIPGFSTETWVLLATSLVLLYLYGTYSHGLFKKLGIPGPRPLPYFGNILGYRKGVDHFDKKCFQQYGKMWGVYDGRQPLLAVTDPNMIKSVLVKECYSVFTNRRSFGPLGAMRNALSLAEDEEWKRIRTLLSPTFTSGKLKEMFPIISHYGDLLVSNLRKEAEKGKPVTMKDIFGAYSMDVITSTAFGVNIDSLNNPQDPFVENSKKLLKFSFFDPFLLSLIFFPFLTPIFEVLNITLFPKSSVNFFTKSVKRMKESRLTDQQKRRVDLLQLMINSQNSKEMDPHKSLSNEELVAQGIIFIFAGYETTSSALSLLAYELATHPDVQQKLQEEIEATFPNKAPPTYDALAQMEYLDMVVNETLRLYPIAARLERACKKDVEIHGVFVPKGTVVVVPVFVLHRDPDLWPEPEEFRPERFSKKHKDTINPYTYLPFGTGPRNCIGMRFALMNMKLALVRVLQNFSFKPCKETQIPLKLTTQGLTQPEKPVVLKILPRDGTVSGA
- Amount [14]: 4.74 pmol/mg protein

B2: CYP2D25 (protein, UniProt O46658 2-500, looked up)
Vitamin D(3) 25-hydroxylase: GLLTGDLLGILALAMVIFLLLVDLMHRRSRWAPRYPPGPMPLPGLGNLLQVNFQDPRLSFIQLRRRFGDVFSLQQIWRPVVVLNGLAAVREALVSHSHETSDRPPVFILEHLGYGPRSEGVILARYGKAWREQRRFSVSTLRNFGLGKKSLEEWVTQEASCLCAAFADQAGRPFSPNNLLNKAVSNVIASLTFARRFEYNDPRMLKLLDLVLEGLKEEVGLMRQVLEAMPVLRHIPGLCAKLFPRQKAFLVMIDELITEHKMTRDLAQPPRDLTDAFLDEMKEAKGNPESSFNDENLRLVVAHLFSAGMITTSTTLAWALLLMILHPDVQRRVQQEIDEVIGHVRQPEIKDQALMPFTLAVLHEVQRFGDIVPLGVAHMTSCDIEVQGFLIPKGTTLITNLTSVLKDETVWKKPFRFYPEHFLDAQGRFTKQEAFMPFSAGRRSCLGEPLARMELFLFFTTLLQAFSFSVPTGQPCPSDHGVFAFLLFPSPYQLCAVPR
- log abundance, Mean Difference (t-test for Equality of Means) [14]: ,05407
- log abundance, Sig. (2-tailed) [14]: ,497
